Results taken from patent US20240132513A1, “BENZAZEPINE DERIVATIVES, COMPOSITIONS, AND METHODS FOR TREATING COGNITIVE IMPAIRMENT” (AGENEBIO, INC., priority 2022, published 2024).
Where two headings read alike, the source gives them in different places.

Tests used:
[1] = target: T1, GABAA R (α5β2γ2) (Homo sapiens, UniProt P18507+P31644); test: Positive allosteric modulator activity: potentiation of EC20 GABA current in oocytes; assay type: cell-based
T1 construct: expressed in transfected cells
Experimental: On day 1, 1 ng/32 nL of GABAA α5β2γ2 cDNA was injected into one oocyte. Test starts on day 2. The cDNA injected to the oocytes was a mix of alpha, beta and gamma, their ratio is 1:1:10 (by weight) and the total weight of the mixed 3 subunits to be injected in one oocyte was 1 ng in 32 nl volume. The injected oocytes can also be tested on day 3. In such case, the cDNA amount injected to the oocytes should be reduced by 20%.
Compounds of the present disclosure were tested using the following procedures.
8 oocytes were placed in 8 chambers of OpusXpress and superfused with Modified Barth's Saline (MBS) at 3 mL/min. Glass electrodes back-filled with 3M KCl (0.5-3 megaohms) were used. Membrane potential of oocytes was voltage-clamped at −60 mV. • 2).
Control Test (Diazepam or Methyl 3,5-Diphenylpyridazine-4-Carboxylate) • 1). New oocytes was used to run new test. • 2). […] Oocytes were washed with MBS for 5-10 min. • 4). […] Itest was divided by IGABA to obtain potentiation (%).
Test Compounds at Multiple Doses • 1). Repeat the above steps 1), 2) and 3) in the control test. • 2). […] Divide Itest by IGABA to obtain potentiation (%). • 3). Discard all tested oocytes, new oocytes were used and the above steps 1) and 2) were repeated to test second concentration of the same compound. Each oocyte was used for only one concentration test for a single test compound. The steps were repeated for other test compounds.

[2] = target: α5β3γ2 GABAA R (Homo sapiens, UniProt P18507+P31644); test: Binding activity on GABAA R: inhibition of [3H]Ro15-1788 binding, α5 containing receptor
Experimental: Tissue culture and Membrane Preparation: The binding was performed on Ltk cells stably expressing GABAA R: […], α2β3γ2, α3β3γ2 and α5β3γ2 (provided by Merck Co., NJ, USA). Cells were seeded in 100 mm culture plates in DMEM/F12 medium containing 10% serum and antibiotics in 5% CO2 and allowed to grow for 1-2 days. GABAAR expression was then induced by dexamethasone as follows: 0.5 μM for 1 day for α5 containing and 2 μM for 3 days for α1, α2 and α3 containing GABAARs. After induction, cells were collected by scraping into Dulbecco's Phosphate buffered saline (DPBS, pH 7.4, Invitrogen, Carlsbad, CA, USA) and centrifuged at 150×g for 10 min. The pellet was washed twice by re-suspension and centrifugation. The cell pellets from at least 5 different preps were combined, suspended in the binding assay buffer (50 mM KH2PO4; 1 mM EDTA; 0.2 M KCl, pH 7.4) and membranes prepared by sonication (3-5 times, 30 sec) using Branson Sonifier 150 (G. Heinmann, Germany). Protein content was determined using BCA assay (Bio-Rad Labs, Reinach, Switzerland) with Bovine Serum Albumin (Sigma Aldrich, St. Louis, MO, USA) as the standard. Aliquots were prepared and stored at −20° C. for further use in binding assays.
Ligand Binding: Saturation binding curves were obtained by incubating membranes with increasing concentrations (0.01-8 nM) of [^3H]Rol5-1788 (Flumazepil, 75-85 Ci/mmol, PerkinElmer, MA, USA), with nonspecific binding measured in the presence of 10 μM diazepam.
All binding assays were performed for 1 h at 4° C. in assay buffer. The total assay volume was 0.5 ml containing 0.2 mg/ml protein for α5 and 0.4 mg/ml for α1, α2, and α3 containing GABAAR membranes. Incubations were terminated by filtration through GF/B filters using a 24-Cell Harvestor (Brandel, Gaithersburg, MD, USA) followed by 3 washes with ice-cold assay buffer. Filters were transferred to scintillation vials, 5 ml scintillation liquid added, vortex-mixed and kept in dark. Next day, radioactivity was obtained using a scintillation counter (Beckman Coulter, Brea, CA, USA). All assays were performed in triplicate.
Data Analyses: Saturation and inhibition curves were obtained using GraphPad Prism software (GraphPad Software, Inc., CA, USA).

[3] = read-out: GABA α5 Functional Data: potentiation
[4] = ranges of the column heads, [3H]Ro15-1788, Ltk cell membranes
[5] = read-out: GABA α5 Functional Data: potentiation, @ 100 nM, EC20 GABA, ranges of the column heads

T1 sequence (P31644 32-462): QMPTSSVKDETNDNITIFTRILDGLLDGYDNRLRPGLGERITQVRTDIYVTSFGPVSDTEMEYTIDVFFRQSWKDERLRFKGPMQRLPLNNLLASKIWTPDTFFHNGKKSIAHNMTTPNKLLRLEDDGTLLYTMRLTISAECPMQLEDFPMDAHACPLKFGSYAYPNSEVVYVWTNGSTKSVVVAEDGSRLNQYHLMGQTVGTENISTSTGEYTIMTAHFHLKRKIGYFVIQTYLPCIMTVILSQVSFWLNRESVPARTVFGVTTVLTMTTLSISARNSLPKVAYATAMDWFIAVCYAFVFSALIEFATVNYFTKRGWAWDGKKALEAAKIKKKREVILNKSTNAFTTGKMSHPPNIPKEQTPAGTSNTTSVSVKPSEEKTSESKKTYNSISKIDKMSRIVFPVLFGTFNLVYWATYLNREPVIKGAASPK
T1 sequence (P47870 25-512 partner limits assumed): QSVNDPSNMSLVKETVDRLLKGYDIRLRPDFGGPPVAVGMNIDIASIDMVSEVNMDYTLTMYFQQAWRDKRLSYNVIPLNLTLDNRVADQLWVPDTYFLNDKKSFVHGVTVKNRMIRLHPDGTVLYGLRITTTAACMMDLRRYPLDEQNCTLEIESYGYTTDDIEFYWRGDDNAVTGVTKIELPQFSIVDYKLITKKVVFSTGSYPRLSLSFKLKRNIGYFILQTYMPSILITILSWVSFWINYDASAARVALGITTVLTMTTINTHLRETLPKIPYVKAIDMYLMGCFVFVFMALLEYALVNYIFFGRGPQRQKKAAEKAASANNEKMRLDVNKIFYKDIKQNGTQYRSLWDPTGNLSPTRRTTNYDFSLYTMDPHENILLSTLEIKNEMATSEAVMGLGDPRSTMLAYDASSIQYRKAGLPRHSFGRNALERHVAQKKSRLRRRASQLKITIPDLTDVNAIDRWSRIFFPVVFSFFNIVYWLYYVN
T1 sequence (P18507 40-475): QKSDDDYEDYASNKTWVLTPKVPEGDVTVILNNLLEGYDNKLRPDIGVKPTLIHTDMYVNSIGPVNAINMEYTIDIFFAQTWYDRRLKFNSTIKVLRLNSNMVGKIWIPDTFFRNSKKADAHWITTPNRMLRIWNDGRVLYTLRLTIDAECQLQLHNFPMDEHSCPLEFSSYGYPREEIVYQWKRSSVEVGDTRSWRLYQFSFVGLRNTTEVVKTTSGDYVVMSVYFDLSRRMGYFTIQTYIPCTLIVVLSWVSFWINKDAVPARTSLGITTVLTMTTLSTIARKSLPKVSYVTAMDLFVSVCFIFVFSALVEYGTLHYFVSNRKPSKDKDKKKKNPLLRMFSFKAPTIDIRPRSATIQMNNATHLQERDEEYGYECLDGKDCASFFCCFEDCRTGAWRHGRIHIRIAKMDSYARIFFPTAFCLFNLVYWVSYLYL
Sequence of α5β3γ2 GABAA R (P31644 32-462): as the sequence (P31644 32-462) above
Sequence of α5β3γ2 GABAA R (P28472 26-473 partner): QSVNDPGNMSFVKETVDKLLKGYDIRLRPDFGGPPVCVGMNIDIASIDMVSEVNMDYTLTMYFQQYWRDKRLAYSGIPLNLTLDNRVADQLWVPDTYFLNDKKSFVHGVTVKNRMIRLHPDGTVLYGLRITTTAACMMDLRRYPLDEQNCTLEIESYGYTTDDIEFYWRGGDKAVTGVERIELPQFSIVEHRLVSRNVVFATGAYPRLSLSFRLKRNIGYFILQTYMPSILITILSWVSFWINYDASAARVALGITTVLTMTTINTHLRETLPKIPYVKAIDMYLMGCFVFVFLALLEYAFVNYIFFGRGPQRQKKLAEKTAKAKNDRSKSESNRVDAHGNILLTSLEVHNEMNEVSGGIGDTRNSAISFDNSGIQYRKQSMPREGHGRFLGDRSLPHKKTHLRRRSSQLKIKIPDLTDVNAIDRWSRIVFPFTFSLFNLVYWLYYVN
Sequence of α5β3γ2 GABAA R (P18507 40-475): as the sequence (P18507 40-475) above

Row | SMILES | Ki [2] [nM] | also measured
1 | COc1ccc2c(c1)-c1c(cnn1Cc1ccccc1)Cc1c(-c3nc(C)no3)ncn1-2 [Compound 7] | – | activation at 0.1 µM [1, 3]: 20 to 50%; Ki [2, 4]: < 100 nM
2 | COc1ccc2c(c1)-c1[nH]ncc1Cc1c(-c3nc(C)no3)ncn1-2 [Compound 9] | – | activation at 0.1 µM [1, 3]: 5 to 20%; Ki [2, 4]: < 100 nM
3 | COc1ccc2c(c1)-c1[nH]ncc1Cc1c(-c3nc(C(C)C)no3)ncn1-2 [Compound 10] | < 100 | activation at 0.1 µM [1, 5]: 20 to 50%
4 | COc1ccc2c(c1)-c1[nH]ncc1Cc1c(-c3nc(C(C)(C)C)no3)ncn1-2 [Compound 11] | < 100 | activation at 0.1 µM [1, 5]: 5 to 20%
5 | COc1ccc2c(c1)-c1[nH]ncc1Cc1c(C3=N[C@H](c4ccccc4)CO3)ncn1-2 [Compound 14] | < 100 | activation at 0.1 µM [1, 5]: 5 to 20%
6 | COc1ccc2c(c1)-c1nn(C)cc1Cc1c(-c3nc(C)no3)ncn1-2 [Compound 20] | < 100 | activation at 0.1 µM [1, 5]: 5 to 20%
7 | COc1ccc2c(c1)-c1nn(Cc3ccccc3F)cc1Cc1c(-c3nc(C)no3)ncn1-2 [Compound 21] | < 100 | activation at 0.1 µM [1, 5]: 5 to 20%
8 | COc1ccc2c(c1)-c1nn(Cc3ccc(F)cc3)cc1Cc1c(-c3nc(C)no3)ncn1-2 [Compound 23] | < 100 | activation at 0.1 µM [1, 5]: 5 to 20%
9 | Cc1noc(-c2ncn3c2Cc2cn[nH]c2-c2cc(Cl)ccc2-3)n1 [Compound 33] | < 100 | activation at 0.1 µM [1, 5]: 20 to 50%
10 | CC(C)c1noc(-c2ncn3c2Cc2cn[nH]c2-c2cc(Cl)ccc2-3)n1 [Compound 34] | < 100 | activation at 0.1 µM [1, 5]: 20 to 50%
11 | CC(C)(C)c1noc(-c2ncn3c2Cc2cn[nH]c2-c2cc(Cl)ccc2-3)n1 [Compound 35] | < 100 | activation at 0.1 µM [1, 5]: 20 to 50%
12 | COc1ccc2c(c1)-c1[nH]ncc1Cc1c(C#Cc3ccnn3C)ncn1-2 [Compound 39] | – | activation at 0.1 µM [1, 3]: 20 to 50%; Ki [2, 4]: < 100 nM
13 | COc1ccc2c(c1)-c1nn(Cc3ccccc3)cc1Cc1c(-c3nc(C(C)C)no3)ncn1-2 [Compound 44] | < 100 | activation at 0.1 µM [1, 5]: 20 to 50%
14 | COc1ccc2c(c1)-c1[nH]ncc1Cc1c(-c3nc(C(F)(F)F)no3)ncn1-2 [Compound 45] | < 100 | activation at 0.1 µM [1, 5]: 20 to 50%
15 | COc1ccc2c(c1)-c1nn(C)cc1Cc1c(-c3nc(C(C)C)no3)ncn1-2 [Compound 46] | < 100 | activation at 0.1 µM [1, 5]: 5 to 20%
16 | COc1ccc(C#Cc2ncn3c2Cc2cn[nH]c2-c2cc(Cl)ccc2-3)cn1 [Compound 52] | < 100 | activation at 0.1 µM [1, 5]: 5 to 20%
17 | Clc1ccc2c(c1)-c1[nH]ncc1Cc1c(-c3ncco3)ncn1-2 [Compound 55] | < 100 | activation at 0.1 µM [1, 5]: 5 to 20%
18 | CCC(C)(OC)c1nc(-c2ncn3c2Cc2cn(C)nc2-c2cc(OC)ccc2-3)no1 (stereo not shown) [Compound 353] | – | Ki [2, 4]: < 100 nM
19 | COc1ccc2c(c1)-c1nn(C)cc1Cc1c(-c3noc(C4(OC)CCOC4)n3)ncn1-2 (stereo not shown) [Compound 354] | < 100 | –
20 | COc1ccc2c(c1)-c1nn(C)cc1Cc1c(-c3noc(C4(OC)CCCC4)n3)ncn1-2 [Compound 355] | < 100 | –
21 | COc1ccc2c(c1)-c1nn(C)cc1Cc1c(-c3noc(C4(F)CCOC4)n3)ncn1-2 (stereo not shown) [Compound 356] | < 100 | –
22 | CCOC1(c2nc(-c3ncn4c3Cc3cn(C)nc3-c3cc(OC)ccc3-4)no2)CC1 [Compound 357] | < 100 | –
23 | CC(=O)N(C)Cc1coc(-c2ncn3c2Cc2cn(C)nc2-c2cc(Cl)ccc2-3)n1 [Compound 358] | < 100 | –
24 | COc1ccc2c(c1)-c1nn(C)cc1Cc1c(-c3noc(COC(F)(F)F)n3)ncn1-2 [Compound 359] | < 100 | –
25 | COc1ccc2c(c1)-c1nn(C)cc1Cc1c(-c3noc(Cn4cccc4)n3)ncn1-2 [Compound 360] | < 100 | –
26 | COc1ccc2c(c1)-c1nn(C)cc1Cc1c(-c3noc(Cn4cccn4)n3)ncn1-2 [Compound 361] | < 100 | –
27 | Clc1ccc2c(c1)-c1nn(CC3CCCO3)cc1Cc1c(-c3noc(C4CCOCC4)n3)ncn1-2 (stereo not shown) [Compound 362] | < 100 | –

Row | SMILES | Ki [2] [nM] | also measured
28 | COc1ccc2c(c1)-c1nn(C)cc1Cc1c(-c3noc(C4(O)CC4)n3)ncn1-2 [Compound 363] | – | Ki [2, 4]: < 100 nM
29 | Cn1cc2c(n1)-c1cc(Cl)ccc1-n1cnc(-c3nc(CN4CCCC4=O)co3)c1C2 [Compound 364] | < 100 | –
30 | CC1(c2nc(-c3ncn4c3Cc3cn(CC5CCCO5)nc3-c3cc(Cl)ccc3-4)no2)CCOCC1 (stereo not shown) [Compound 365] | < 100 | –
31 | COc1ccc2c(c1)-c1nn(C)cc1Cc1c(-c3noc(CC4COC4)n3)ncn1-2 [Compound 366] | < 100 | –
32 | COC(C)(C)c1noc(-c2ncn3c2Cc2cn(CC4CCOC4)nc2-c2cc(Cl)ccc2-3)n1 (stereo not shown) [Compound 367] | < 100 | –
33 | COc1ccc2c(c1)-c1nn(C)cc1Cc1c(-c3noc(CN4CCCC4=O)n3)ncn1-2 [Compound 368] | 100 to 1000 | –
34 | COc1ccc2c(c1)-c1nn(C)cc1Cc1c(-c3noc(CCN4CCCC4=O)n3)ncn1-2 [Compound 369] | < 100 | –
35 | COc1ccc2c(c1)-c1nn(C)cc1Cc1c(-c3noc(C4(OC(C)C)CC4)n3)ncn1-2 [Compound 370] | < 100 | –
36 | Cn1cc2c(n1)-c1cc(Cl)ccc1-n1cnc(-c3noc(Cn4cccc4)n3)c1C2 [Compound 371] | < 100 | –
37 | Cn1cc2c(n1)-c1cc(Cl)ccc1-n1cnc(-c3noc(Cn4cccn4)n3)c1C2 [Compound 372] | < 100 | –
38 | Cn1cc2c(n1)-c1cc(Cl)ccc1-n1cnc(-c3noc(Cn4ccnc4)n3)c1C2 [Compound 373] | < 100 | –
39 | COc1ccc2c(c1)-c1nn(CC3CCOC3)cc1Cc1c(-c3noc(C(C)(C)OC)n3)ncn1-2 (stereo not shown) [Compound 374] | < 100 | –
40 | COc1ccc2c(c1)-c1c(cnn1CC1CCOC1)Cc1c(-c3noc(C(C)(C)OC)n3)ncn1-2 (stereo not shown) [Compound 375] | < 100 | –
41 | COc1ccc2c(c1)-c1nn(C)cc1Cc1c(-c3noc(C(C)(C)CO)n3)ncn1-2 [Compound 376] | < 100 | –
42 | COCC(C)(C)c1nc(-c2ncn3c2Cc2cn(C)nc2-c2cc(OC)ccc2-3)no1 [Compound 377] | < 100 | –
43 | COc1ccc2c(c1)-c1nn(C)cc1Cc1c(-c3nc(CN(C)C(C)=O)co3)ncn1-2 [Compound 378] | 100 to 1000 | –
44 | COc1ccc2c(c1)-c1nn(C)cc1Cc1c(-c3nc(CN4CCCC4=O)co3)ncn1-2 [Compound 379] | < 100 | –
45 | COc1ccc2c(c1)-c1nn(C)cc1Cc1c(-c3nc(CN(C(C)C)C(C)C)co3)ncn1-2 [Compound 380] | < 100 | –
46 | COc1ccc2c(c1)-c1nn(C)cc1Cc1c(-c3nc(CN(C(C)=O)C(C)C)co3)ncn1-2 [Compound 381] | – | Ki [2, 4]: < 100 nM
47 | Cn1cc2c(n1)-c1cc(Cl)ccc1-n1cnc(-c3noc(CN4CCCC4=O)n3)c1C2 [Compound 382] | < 100 | –
48 | Cn1cc2c(n1)-c1cc(Cl)ccc1-n1cnc(-c3noc(CCN4CCCC4=O)n3)c1C2 [Compound 383] | – | Ki [2, 4]: < 100 nM
49 | COc1ccc2c(c1)-c1nn(C)cc1Cc1c(-c3noc(C4(O)CCCC4)n3)ncn1-2 [Compound 384] | < 100 | –
50 | Cn1cc2c(n1)-c1cc(Cl)ccc1-n1cnc(-c3noc(CCN4CCCC4)n3)c1C2 [Compound 385] | < 100 | –
51 | CC(=O)N(C)Cc1noc(-c2ncn3c2Cc2cn(C)nc2-c2cc(Cl)ccc2-3)n1 [Compound 386] | – | Ki [2, 4]: < 100 nM
52 | COCCc1nc(-c2ncn3c2Cc2cn(C)nc2-c2cc(Cl)ccc2-3)no1 [Compound 387] | < 100 | –
53 | COc1ccc2c(c1)-c1nn(C)cc1Cc1c(-c3noc(C(C)(C)O)n3)ncn1-2 [Compound 388] | < 100 | –
